Measured values published in ChEMBL document CHEMBL1201862, “PubChem BioAssay data set” (2004).
Calls of active or inactive are those of the source.

Key:
[1] = HepG2 cell cytotoxicity, dose response, cytotoxicity control for Shn3 inhibitor project, CellTiter-Glo, cherry-picked (AID 624134); format: functional, cell-based
[2] = control 3'UTR Renilla luciferase suppression, dose response, counter-screen for Shn3 inhibitor project, cell-based, Clone20-Shn3RL, cherry-picked (AID 624133); format: functional
Protein Wnt-3a = Protein Wnt-3a (Mus musculus, UniProt P27467); experiment: Wnt3a-driven reporter signaling inhibition, dose response, selectivity assay for Gli-SUFU antagonist project, Wnt-LIGHT cells, luminescence (AID 651570); format: functional; details: read-out: IC50_Mean;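 also: Wnt-LIGHT reporter cells stimulated with conditioned medium from Wnt3a-producing cells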
[3] = biological target: COUP transcription factor 2 (Homo sapiens, UniProt P24468); experiment: Luminescence-based cell-based high throughput dose response assay to identify inhibitors of COUP-TFII (NR2F2).; format: functional;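 also: HEK293 cells transiently cotransfected with COUP-TFII expression vector and reporter; luciferase reporter luminescence driven by COUP-TFII from the pX2-168 reporter plasmid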
Paired box protein Pax-8 = Paired box protein Pax-8 (Homo sapiens, UniProt Q06710); experiment: inhibitors of PAX8-driven TPO luciferase reporter, dose response, RMG-I cells, cherry-pick (AID 687027); format: functional, cell-based;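 also: luciferase reporter driven by Pax8 target thyroperoxidase promoter measured by SteadyGlo luminescence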
[4] = IGROV1 ovarian cancer cell cytotoxicity, dose response, PAX8 inhibitor project, plate reader, dry powder samples (AID 743043); format: functional, cell-based; details: IGROV-1
[5] = cytotoxicity in OVCAR8 ovarian cancer cells, dose response, PAX8 project, cell-based, plate reader, dry powder samples (AID 743197); format: functional; details: OVCAR-8
Nonstructural protein 1 = Nonstructural protein 1 (Influenza A virus, UniProt Q194T2); format: functional, Influenza A virus (A/California/07/2009(H1N1))
[6] = biological target: 1-phosphatidylinositol 4,5-bisphosphate phosphodiesterase gamma-1 (Homo sapiens, UniProt P19174); experiment: Counterscreen for inhibitors of phospholipase C isozymes (PLC-B3): Fluorescence-based biochemical high throughput dose response assay to identify inhibitors of phospholipase C isozymes (PLC-gamma1).
[7] = biological target: 1-phosphatidylinositol 4,5-bisphosphate phosphodiesterase beta-3 (Homo sapiens, UniProt Q01970); experiment: Fluorescence-based biochemical high throughput dose response assay to identify inhibitors of phospholipase C isozymes (PLC-B3).
1-phosphatidylinositol 4,5-bisphosphate phosphodiesterase beta-3, sequence (Q01970 whole entry): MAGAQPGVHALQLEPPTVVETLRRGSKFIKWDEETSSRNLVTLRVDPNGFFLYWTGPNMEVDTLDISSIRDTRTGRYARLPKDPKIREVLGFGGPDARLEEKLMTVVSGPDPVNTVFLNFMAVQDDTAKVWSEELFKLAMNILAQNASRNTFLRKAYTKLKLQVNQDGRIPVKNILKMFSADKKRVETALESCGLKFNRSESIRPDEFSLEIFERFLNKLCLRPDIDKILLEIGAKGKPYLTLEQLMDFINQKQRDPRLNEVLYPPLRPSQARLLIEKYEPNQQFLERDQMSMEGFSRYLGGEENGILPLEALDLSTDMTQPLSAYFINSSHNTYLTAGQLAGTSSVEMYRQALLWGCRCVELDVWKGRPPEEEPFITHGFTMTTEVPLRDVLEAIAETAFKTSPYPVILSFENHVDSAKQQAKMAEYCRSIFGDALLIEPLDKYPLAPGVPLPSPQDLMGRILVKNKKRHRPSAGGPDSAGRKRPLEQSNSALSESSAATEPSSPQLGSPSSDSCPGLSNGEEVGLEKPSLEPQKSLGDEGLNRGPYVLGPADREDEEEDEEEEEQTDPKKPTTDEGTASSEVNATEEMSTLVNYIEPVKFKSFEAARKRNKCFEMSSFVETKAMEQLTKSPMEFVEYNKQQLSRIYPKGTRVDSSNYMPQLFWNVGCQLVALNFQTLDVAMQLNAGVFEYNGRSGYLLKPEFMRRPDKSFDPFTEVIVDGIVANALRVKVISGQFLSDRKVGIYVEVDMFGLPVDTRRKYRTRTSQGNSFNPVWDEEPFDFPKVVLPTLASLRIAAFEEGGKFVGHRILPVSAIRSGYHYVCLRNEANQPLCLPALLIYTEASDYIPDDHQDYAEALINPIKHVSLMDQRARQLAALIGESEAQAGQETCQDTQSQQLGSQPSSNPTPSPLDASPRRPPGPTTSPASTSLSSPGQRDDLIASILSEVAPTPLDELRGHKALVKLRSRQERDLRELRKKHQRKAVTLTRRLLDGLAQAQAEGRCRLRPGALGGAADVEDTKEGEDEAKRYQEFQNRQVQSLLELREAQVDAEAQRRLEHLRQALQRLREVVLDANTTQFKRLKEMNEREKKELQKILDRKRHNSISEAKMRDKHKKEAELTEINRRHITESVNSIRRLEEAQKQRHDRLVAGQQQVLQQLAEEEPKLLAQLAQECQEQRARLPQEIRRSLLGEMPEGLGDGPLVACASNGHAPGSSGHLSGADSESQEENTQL

Paired box protein Pax-8, sequence (Q06710 whole entry): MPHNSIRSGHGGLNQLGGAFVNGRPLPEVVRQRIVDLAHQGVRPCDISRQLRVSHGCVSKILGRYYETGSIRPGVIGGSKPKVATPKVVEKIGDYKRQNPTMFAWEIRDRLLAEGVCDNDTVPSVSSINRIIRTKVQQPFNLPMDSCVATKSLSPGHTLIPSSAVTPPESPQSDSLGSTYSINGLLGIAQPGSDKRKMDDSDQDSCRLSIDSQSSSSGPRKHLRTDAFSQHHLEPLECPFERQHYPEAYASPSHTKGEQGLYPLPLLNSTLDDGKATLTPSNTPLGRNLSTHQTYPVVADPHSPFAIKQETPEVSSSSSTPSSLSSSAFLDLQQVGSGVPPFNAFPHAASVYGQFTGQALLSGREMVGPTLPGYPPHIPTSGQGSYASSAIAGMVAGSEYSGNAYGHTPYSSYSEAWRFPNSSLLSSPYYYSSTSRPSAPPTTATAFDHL
Protein Wnt-3a, sequence (P27467 whole entry): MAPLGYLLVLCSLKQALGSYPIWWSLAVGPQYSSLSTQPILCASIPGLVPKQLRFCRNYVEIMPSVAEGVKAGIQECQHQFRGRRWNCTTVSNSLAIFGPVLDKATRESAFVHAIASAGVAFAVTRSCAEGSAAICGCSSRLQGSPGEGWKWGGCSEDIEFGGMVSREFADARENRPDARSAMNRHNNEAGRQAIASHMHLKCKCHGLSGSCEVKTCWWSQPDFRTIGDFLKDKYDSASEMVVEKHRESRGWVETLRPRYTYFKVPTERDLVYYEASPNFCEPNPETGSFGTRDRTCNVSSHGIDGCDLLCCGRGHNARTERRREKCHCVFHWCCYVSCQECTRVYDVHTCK
Nonstructural protein 1, sequence (Q194T2 whole entry): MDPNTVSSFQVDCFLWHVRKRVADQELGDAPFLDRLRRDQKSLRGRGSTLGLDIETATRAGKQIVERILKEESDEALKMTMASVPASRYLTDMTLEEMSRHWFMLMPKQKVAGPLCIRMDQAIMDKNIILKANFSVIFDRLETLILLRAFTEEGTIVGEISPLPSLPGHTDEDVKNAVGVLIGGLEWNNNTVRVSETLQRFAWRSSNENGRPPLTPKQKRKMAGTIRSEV
COUP transcription factor 2, sequence (P24468 whole entry): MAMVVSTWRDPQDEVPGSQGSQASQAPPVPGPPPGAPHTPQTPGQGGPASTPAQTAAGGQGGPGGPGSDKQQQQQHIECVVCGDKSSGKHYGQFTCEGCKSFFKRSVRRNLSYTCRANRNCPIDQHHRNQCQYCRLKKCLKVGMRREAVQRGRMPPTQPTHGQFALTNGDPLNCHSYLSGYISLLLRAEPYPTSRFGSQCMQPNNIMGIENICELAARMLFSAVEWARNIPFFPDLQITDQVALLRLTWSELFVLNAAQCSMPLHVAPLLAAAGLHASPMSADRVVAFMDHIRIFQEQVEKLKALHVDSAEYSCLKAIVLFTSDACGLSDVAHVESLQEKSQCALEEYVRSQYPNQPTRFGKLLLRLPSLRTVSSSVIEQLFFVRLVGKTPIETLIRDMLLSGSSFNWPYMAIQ
1-phosphatidylinositol 4,5-bisphosphate phosphodiesterase gamma-1, sequence (P19174 whole entry): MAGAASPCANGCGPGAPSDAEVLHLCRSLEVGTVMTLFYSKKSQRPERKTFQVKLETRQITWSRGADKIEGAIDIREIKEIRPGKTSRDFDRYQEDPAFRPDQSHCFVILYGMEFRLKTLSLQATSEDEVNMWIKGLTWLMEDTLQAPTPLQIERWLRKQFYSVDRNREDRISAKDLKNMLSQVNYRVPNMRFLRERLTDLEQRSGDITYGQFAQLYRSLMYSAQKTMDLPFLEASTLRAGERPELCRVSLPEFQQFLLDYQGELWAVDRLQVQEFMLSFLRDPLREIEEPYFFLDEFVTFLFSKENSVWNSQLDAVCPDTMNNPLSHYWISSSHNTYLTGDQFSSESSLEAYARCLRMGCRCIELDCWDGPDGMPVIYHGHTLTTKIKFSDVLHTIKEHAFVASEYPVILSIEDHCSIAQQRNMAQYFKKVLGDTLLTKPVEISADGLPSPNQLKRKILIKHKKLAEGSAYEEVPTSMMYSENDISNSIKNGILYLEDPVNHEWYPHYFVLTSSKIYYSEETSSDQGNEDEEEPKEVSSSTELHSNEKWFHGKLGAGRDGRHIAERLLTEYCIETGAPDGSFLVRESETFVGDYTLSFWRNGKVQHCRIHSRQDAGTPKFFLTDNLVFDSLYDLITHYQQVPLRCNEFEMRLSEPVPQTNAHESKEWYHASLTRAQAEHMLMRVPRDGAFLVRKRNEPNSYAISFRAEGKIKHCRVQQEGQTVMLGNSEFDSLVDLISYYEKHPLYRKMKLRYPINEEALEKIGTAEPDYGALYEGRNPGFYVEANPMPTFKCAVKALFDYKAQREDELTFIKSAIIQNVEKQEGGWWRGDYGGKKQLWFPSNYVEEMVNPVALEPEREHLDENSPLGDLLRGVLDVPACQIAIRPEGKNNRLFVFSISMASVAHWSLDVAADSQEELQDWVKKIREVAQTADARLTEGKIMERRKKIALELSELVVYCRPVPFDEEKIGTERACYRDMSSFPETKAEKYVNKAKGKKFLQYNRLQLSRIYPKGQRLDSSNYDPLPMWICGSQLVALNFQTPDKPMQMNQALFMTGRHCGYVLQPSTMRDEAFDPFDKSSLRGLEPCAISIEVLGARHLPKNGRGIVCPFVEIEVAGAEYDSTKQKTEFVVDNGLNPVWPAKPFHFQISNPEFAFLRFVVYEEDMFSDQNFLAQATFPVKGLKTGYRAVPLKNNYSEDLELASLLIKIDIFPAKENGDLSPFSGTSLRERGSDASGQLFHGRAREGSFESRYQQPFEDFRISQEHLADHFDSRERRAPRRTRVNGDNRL

For `CC[C@@H](O)C[C@H]1CCC[C@@]2(C[C@@H]3OC(=O)/C=C/[C@@](C)(O)[C@@H](O)[C@H](C)[C@@H](O)[C@H](OC4CCC(N(C)C)C(C)O4)[C@@H](O)[C@](C)(O)CCCCC/C=C/[C@@H]4CC(C)(C)O[C@@]4(O)C[C@H](O2)[C@H]3C)O1` (stereo partly drawn), which AC50 [1] is on record?
Its AC50 is 20.1 µM (active).

And the AC50 [2]?
The AC50 was < 0.26 µM (active).

What about the IC50 (Protein Wnt-3a) of the same compound?
The IC50 was 0.0061 µM (active).

And the IC50 [3]?
Its IC50 is > 0.013 µM (active).

Which AC50 (Paired box protein Pax-8) does the source give for `C[C@@H]1CN([C@@H](C)CO)C(=O)c2cc(NC(=O)Cc3ccccc3)ccc2O[C@@H](C)CCCCO[C@H]1CN(C)Cc1ccc(C(F)(F)F)cc1` here?
Its AC50 is 9.1 µM (active).

What about the AC50 [4] of the same compound?
The AC50 was 44.6 µM (active).

And the AC50 [5]?
The AC50 was > 70 µM (inactive).

Which results are given for `C[C@H]1CCCCO[C@H](CN(C)C(=O)NC2CCCCC2)[C@@H](C)CN([C@@H](C)CO)C(=O)c2cc(NC(=O)Nc3ccc(C(F)(F)F)cc3)ccc2O1`?
AC50 (Paired box protein Pax-8): 8.03 µM (active); AC50 [4]: 47.5 µM (active); AC50 [5]: 67.2 µM (active)

For `Cc1ccc(S(=O)(=O)NC2=C(N3CCN(c4ccccc4F)CC3)C(=O)c3ccccc3C2=O)cc1`, which IC50 (Nonstructural protein 1) is on record?
The IC50 was 32.5 µM (active).

What about the IC50 [6] of the same compound?
Its IC50 is > 122 µM (inactive).

And the IC50 [7]?
Its IC50 is > 122 µM (inactive).
